Publication PMC6540952 (Chemical Science, 2019)

Target: IP6K1 (Homo sapiens, UniProt Q92551)
Assay: NMR kinase activity assay with [[…]6]InsP6, […] ATP
Type: biochemical

Sequence of IP6K1 (Q92551 whole entry): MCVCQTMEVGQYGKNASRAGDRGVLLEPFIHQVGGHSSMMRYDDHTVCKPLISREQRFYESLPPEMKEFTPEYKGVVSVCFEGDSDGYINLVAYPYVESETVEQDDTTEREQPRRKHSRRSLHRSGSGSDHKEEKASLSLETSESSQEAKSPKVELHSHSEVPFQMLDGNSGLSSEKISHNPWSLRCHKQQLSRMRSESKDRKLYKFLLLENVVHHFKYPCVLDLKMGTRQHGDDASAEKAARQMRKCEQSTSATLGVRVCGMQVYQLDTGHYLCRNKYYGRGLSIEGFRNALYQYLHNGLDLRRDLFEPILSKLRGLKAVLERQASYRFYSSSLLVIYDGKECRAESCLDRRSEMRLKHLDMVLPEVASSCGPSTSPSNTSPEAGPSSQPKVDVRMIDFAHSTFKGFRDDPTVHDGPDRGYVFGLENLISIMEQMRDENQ

SMILES: O=[N+]([O-])c1ccc(CNc2nc(NCc3cccc(C(F)(F)F)c3)nc3[nH]cnc23)cc1 [TNP]
- IC50: 2250 nM
